Like-named read-outs stand apart in the source and are kept apart here.
Tests used:
visna virus = test: microbe, parasite or virus in culture; format: cell-based; details: for inhibition at 100 µM / inhibition at 1000 µM: Visna-maedi virus
α-glucosidase = test: Inhibition of α-glucosidase in conventional enzyme assay; format: biochemical; details: 1 mM concentration
β-glucosidase = test: Inhibition of β-glucosidase in conventional enzyme assay; format: biochemical; details: 1 mM concentration
[1] = read-out: Visna % Plaque Redn (Conc)
[2] = read-out: Visna % Plague Redn (Conc)

Structure (SMILES)	inhibition at 100 µM (visna virus; [1]) [%]	inhibition at 100 µM (visna virus; [2]) [%]	inhibition at 1000 µM (visna virus; [1]) [%]	further results
[N-]=[N+]=N[C@H]1CN[C@H](CO)[C@@H](O)[C@@H]1O [Compound 12, 2-azido-1,2,5-trideoxy-1,5-imino-D-glucitol]	76	–	–	–
CCCCN1CC(N=[N+]=[N-])C(O)C(O)C1CO [Compound 13, 2-azido-1,5-(butylimino)-1,2,5-trideoxy-D-glucitol]	78	78	–	–
CCC(CC)CN1CC(N=[N+]=[N-])C(O)C(O)C1CO [Compound 14, 2-azido-1,5-{(2-ethylbutyl)imino}-1,2,5-trideoxy-D-glucitol]	67	–	–	–
[N-]=[N+]=NC1CN(CCCC(F)(F)F)C(CO)C(O)C1O [Compound 15, 2-azido-1,5-{(4,4,4-trifluorobutyl)imino}-1,2,5-trideoxy-D-glucitol]	–	–	41	–
N[C@H]1CN[C@H](CO)[C@@H](O)[C@@H]1O [Compound 20, 2-amino-1,2,5-trideoxy-1,5-imino-D-glucitol]	91	–	–	–
CCCCN1CC(N)C(O)C(O)C1CO [Compound 21, 2-amino-1,5-(butylimino)-1,2,5-trideoxy-D-glucitol]	66	66	–	–
CCC(CC)CN1CC(N)C(O)C(O)C1CO [Compound 22, 2-amino-1,5-{(2-ethylbutyl)imino}-1,2,5-trideoxy-D-glucitol]	–	–	–	Visna % Plaque Redn (Conc), only a concentration bound printed (visna virus; Table 3, no % printed): > 1 mm
NC1CN(CCCC(F)(F)F)C(CO)C(O)C1O [Compound 23, 2-amino-1,5-{(4,4,4-trifluorobutyl)imino}-1,2,5-trideoxy-D-glucitol]	–	–	9	–
CCCCN1CC(N(C)C)C(O)C(O)C1CO [Compound 28, 1,5-(butylimino)-1,2,5-trideoxy-2-(dimethylamino)-D-glucitol]	–	41	–	–
CCCCN1CC(NC)C(O)C(O)C1CO [Compound 29, 1,5-(butylimino)-1,2,5-trideoxy-2-(methylamino)-D-glucitol]	–	25	–	–
CCCCN1CC(NC(=O)CCC)C(O)C(O)C1CO [Compound 30, 1,5-(butylimino)-1,2,5-trideoxy-2-{(1-oxobutyl)amino}-D-glucitol]	–	20	–	–
CCCCN1CC(NC(=O)CCC)C(OC(=O)CCC)C(OC(=O)CCC)C1COC(=O)CCC [Compound 31, 1,5-(butylimino)-1,2,5-trideoxy-2-{(1-oxobutyl)amino}-D-glucitol, tributanoate]	–	29	–	–
N[C@H]1[C@H](O)[C@@H](CO)NC[C@@H]1O [Compound 37, 3-amino-1,3,5-trideoxy-1,5-imino-D-glucitol]	–	–	30	–
CCCCN1CC(N)C(N)C(O)C1CO [Compound 46, 2,3-diamino-1,5-(butylimino)-1,2,3,5-tetradeoxy-D-glucitol]	–	–	3	–
CN(C)CCN[C@@H]1[C@H](O)[C@@H](CO)NC[C@H]1O [Compound 50, 3-[{2-(dimethylamino)ethyl}amino]-1,3,5-trideoxy-1,5-imino-D-altritol]	–	–	38	inhibition of α-glucosidase (α-glucosidase): 22%; inhibition of β-glucosidase (β-glucosidase): 22%
